Experimental data as given in patent publication US20110212186A1, “COMPOSITION FOR TREATING AUTOIMMUNE DISORDERS” (priority 2008, published 2011).

Columns and labels:
[1] = test system: Bovine articular cartilage explants; experiment: Chondroitin sulphate (sGAG) release from bovine cartilage explants, anabolic conditions; format: cell-based; settings: for accumulative chondroitin sulphate release day 17-24: combination experiment, IGF-1 100 ng/ml; for effect on accumulated chondroitin sulphate release day 10-23: Oligomin 200 and 400 μg/ml, glucosamine 400 μg/ml, T-ChOS 50-400 μg/ml, A 200 and 400 μg/ml
Procedure: (§1) For cartilage explant experiments, aminosugar concentrations tested were as follows. Oligomin and T-ChOS, 50, 100, 200 and 400 μg/ml in the media. N-acetyl glucosamine (A) and glucosamine (D), 200 and 400 μg/ml in the media. A+D combination were 200 μg/ml each in the media.
(§2) Bovine articular cartilage explants cultures are used as a model for cartilage degenerative diseases that enables experiments in a robust and simple test-model/assay, where the effect of growth factors and drugs on cartilage metabolism can be investigated [ Olsen, A.K., et al., Anabolic and catabolic function of chondrocyte ex vivo is reflected by the metabolic processing of type II collagen. Osteoarthritis and Cartilage, 2007, 15(3): p. 335-342.].
(§3) The knees were opened under semi-sterile conditions in a LAF bench. Cuts of surface articular cartilage were removed in a one-movement-maneuver, removing only the outermost layer. Too deep cuts will contain underlying subchondral bone /chondrosteous material. Uniform explants were harvested from both femur and tibia. Explants from the cartilage situated at the chondyles were avoided. The explants were transferred into a Petri-dish containing PBS+pen/strep (penincillin/streptomycin).
(§4) The explants were individually weighed and transferred into a sterile 96 well plate under semi-sterile conditions in a flow-bench. Prior, the wells were filled with 200 μL PBS+pen/strep, to keep the explants wet after weighing. Then PBS was removed, and medium containing different types and concentration of aminosugars were applied to the wells, 200 μL/well, according to the set-up. Four explant replicates were used for each test. The plates were incubated at 37° C. and 5% CO2 with shaking 50 rpm. The plates were covered in a CO2 permeable plastic bag to limit/avoid contamination from spores. The conditioning medium was replaced every 2nd - 3rd day, and the supernatant was transferred into a new 96 wells plate and stored at −20° C. until end of experiment. Fresh medium different types and concentration of aminosugars were applied to the wells, 200 μL/well, according to the setup every 2nd- 3rd day.
For detection of sulfated glycosaminoglycans (sGAG) that is chondroitin sulphate release, the quantitative dye-binding assay for in vitro analysis of GAG release was used according to the manufacturer's instructions (Wieslab, S).

[2] = test system: Bovine articular cartilage explants; experiment: Extracted cartilage protein content, bovine explants; format: cell-based; settings: combination experiment
Procedure: The cartilage was extracted to determine the cartilage content of various proteins, in comparison of that secreted to the medium.
Cartilage explants were frozen in liquid nitrogen. The frozen explants were pulverized using Bessman Tissue Pulverizer according to the instructions supplied by the manufacturer. The powder was placed in 14 ml tube using frozen scalpel. Ice-cold Digestive Buffer (50 mM Tris.HCL buffer, pH 7.4 containing 0.1M NaCL and 0.1% Triton X-100) was added and the solution homogenized for 30 sec using Polytron PT-MR 3000 homogenizer (Brinkmann, Littau-Switzerland).The homogenate was then centrifuged at 15,000 rpm for 20 min and the supernatant collected and stored at −80° C. until further analysis.

[3] = test system: Bovine articular cartilage explants; experiment: Collagen type II formation (PIINP ELISA) in bovine cartilage explants; format: cell-based; settings: for effect on PIINP, day 22: Oligomin and T-ChOS 50-400 μg/ml, A and D 200 and 400 μg/ml
Procedure: as §1, §2, §3
as §4, with “The conditioning medium was replaced every 2nd - 3rd day, and the supernatant was transferred into a new 96 wells plate and stored at −20° C. until end of experiment. Fresh medium different types and concentration of aminosugars were applied to the wells, 200 μL/well, according to the setup every 2nd- 3rd day.” left out
Supernatants were measured for type II collagen formation (PIINP), for aggrecanase-mediated aggrecan degradation. […]
Collagen type II formation is measured by a specific ELISA assay based on an antibody that recognizes an epitope on the PIINP molecule outside the exon 2 (PIIANP). […]

[4] = test system: human OA cartilage explant; experiment: Collagen type II formation (PIINP) in human OA cartilage explants; format: cell-based; settings: different concentrations
Procedure: Collagen type II formation is measured by a specific ELISA assay based on an antibody that recognizes an epitope on the PIINP molecule outside the exon 2 (PIIANP). Therefore the EUSA is not specific for the HA or the IIB form but reacts with both forms. Cartilage explants were obtained from a knee of a person suffering from osteoarthritis. Explants were kept in growth media under anabolic conditions for 25 days. Fresh media was applied every 2-3 days. Aminosugars (Oligomin, T-ChOS, A and D; different concentration) were kept in media from day 0 to day 25.

YKL-40 = experiment: Extracellular YKL-40 release in human cartilage explant media; format: cell-based; settings: 400 μg/ml
Procedure: Cartilage explants were obtained from a knee of a person suffering from osteoarthritis. Explants were kept in growth media under anabolic conditions for 25 days. Fresh media was applied every 2-3 days. Aminosugars (Oligomin, T-ChOS, A and D; different concentration) were kept in media from day 0 to day 25. Since YKL-40 is a proposed receptor for the T-ChOS, the extracellular YKL-40 release was analyzed in media at day 4, 11, 15, 20 and 25 in explants treated with 400 μg/ml of T-ChOS, Oligomin and glucosamine (D). […] For the control there was a significant drop in the YKL-40 expression between day 10 and 20. […] Glucosamine had no effect (FIG. 7). […] This relationship disappeared when the T-ChOS group was excluded from the data (no linear regression).

[5] = test system: human OA articular cartilage explants; experiment: Cell viability by Alamar Blue, human OA articular cartilage explants; format: cell-based; settings: linear regression p<0.05
Procedure: To ensure the specific and non-toxic action of aminosugars, the metabolic activity of chondrocytes were measured by Alamar Blue, which previously has shown to correlate to cell number and cell viability. Cartilage explants were obtained from a knee of a person suffering from osteoarthritis. Explants were kept in growth media under anabolic conditions for 25 days. Fresh media was applied every 2-3 days. Aminosugars (Oligomin, T-ChOS, A and D; different concentration) were kept in media from day 0 to day 25.

[6] = test system: type II collagen arthritis in rats; experiment: Type II collagen induced rheumatoid arthritis rat model, oral dosing; format: in vivo
Procedure: Animals used were 10 per group for arthritis-Induced groups, 4/group for non-induced control group), housed 4-5/cage. For the arthritis induction, the animals were anesthetized with Isoflurane and given subcutaneous/intradermal (SC/ID) injections of 300 μl of Freund's Incomplete Adjuvant (Difco, Detroit, Mich.), containing 2 mg/ml bovine type II collagen (Elastin Products, Owensville, Mo.), at the base of the tail and 2 sites on the back on days 0 and 6. Dosing of the various oligomer and/or monomer compositions by oral route (QD at 24 hr intervals) was initiated on day 0 of the study and continued through day 16. Animals were terminated on study day 17. Efficacy evaluation was based on ankle caliper measurements, expressed as area under the curve (AUC), terminal hind paw weights, and histopathologic evaluation of ankles and knees. For statistical analysis various inflammation calculations were performed for the ankle diameter data, Anova and t-tests (parametrical or non-parametrical tests) were applied according to software guidelines ([…]). All animals survived to study termination.

Compound	accumulative chondroitin sulphate release day 17-24 [1]	extracted cartilage protein assay at day 24 [2]	effect on accumulated chondroitin sulphate release day 10-23 [1]	effect on accumulated chondroitin sulphate release day 10-23 ([1]; listed as Glucosamine)	accumulated PIINP release (day 20 and day 24) ([3]; combination experiment, T-ChOS 50 and 400 μg/ml, T-ChOS 400 μg/ml + glucosamine 200 μg/ml, glucosamine 200 μg/ml, Oligomin 50-400 μg/ml)	effect on PIINP, day 22 [3]	effect on PIINP expression day 18-25 [4]	YKL-40 expression in media, late period (day 15-25) (YKL-40)	Cell-viability at day 25 (Alamar Blue), induction [5]	Summed knee scores, non-significant increase vs disease controls ([6]; 21 mg/kg D alone)	Inhibition of summed ankle histopathology parameters ([6]; T-ChOS 7.1 mg/kg (Group 3), D 21.4 mg/kg (Group 4), T-ChOS 7.1 + D 21.4 mg/kg (Group 5))	overall benefit in the rat arthritis study (summary) ([6]; T-ChOS 7.1 mg/kg alone, D-glucosamine 21.4 mg/kg alone)	accumulative ankle diameter (day 9-17) ([6]; T-ChOS 7.1 mg/kg, D 21.4 mg/kg, combination T-ChOS 7.1 + D 21.4 mg/kg)
IGF-1: Insulin-like Growth Factor-1, 100 ng/ml, positive anabolic stimulation control	significant Increase	did not reveal any significant effect											
N[C@H]1C(O)O[C@H](CO)[C@@H](O)[C@@H]1O (stereo partly shown) [glucosamine]	neither T-ChOS nor glucosamine alone did have any significant effect		significant reduction	same effect	no effect	no effect	no effect	no effect	least	14%	12%	no beneficial effect	no effect
CC(=O)N[C@H]1C(O)O[C@H](CO)[C@@H](O)[C@@H]1O (stereo partly shown) [N-acetyl glucosamine]			no significant effect			no effect							
